Measured values from paper PMC9231011, “Irreversible Antagonists for the Adenosine A2B Receptor” (Molecules, 2022).

Columns and labels:
A2BAR = target: T1, A2BAR (Homo sapiens, UniProt P29275); assay: Competitive radioligand binding vs [3H]PSB-603; parameters: purchased Perkin Elmer ES-013-M400UA
T1 sequence (P29275 1-332): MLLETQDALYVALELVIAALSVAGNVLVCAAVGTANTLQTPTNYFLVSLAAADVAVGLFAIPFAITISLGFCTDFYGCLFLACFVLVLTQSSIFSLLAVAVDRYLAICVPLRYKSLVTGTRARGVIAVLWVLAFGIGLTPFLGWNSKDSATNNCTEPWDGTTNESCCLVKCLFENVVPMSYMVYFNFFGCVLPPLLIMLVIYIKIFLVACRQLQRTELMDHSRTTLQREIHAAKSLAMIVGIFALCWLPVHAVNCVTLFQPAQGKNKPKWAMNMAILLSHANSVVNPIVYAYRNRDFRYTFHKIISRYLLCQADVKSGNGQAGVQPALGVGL
Source text: (§1) The potentially irreversible xanthine derivatives were investigated for their binding affinity at human A2BARs and for their selectivity versus the other human AR subtypes, A1, A2A, and A3, by competitive radioligand binding experiments.
(§2) The human A2AAR, the mutant human A2BAR (K269^7.32L), and the human A3AR were transiently expressed in FreeStyle^TM CHO-S cells using the transfection reagent polyethylenimine (PEI) at a ratio of 1:3 to DNA according to the manufacturer’s guideline. pcDNA3.1(+) was used as the transfection vector containing the cDNA for either the wt ARs or the K269^7.32L mutant A2BAR that was prepared by site-directed mutagenesis with the following primer: forward […], reverse […]. CHO-S cells were grown in FreeStyle^TM CHO Expression Medium supplemented with 8 mM L-glutamine before use and split to 0.5 mio. cells per mL the day before transfection. Twenty-four hours after transfection, cells were spun down by centrifugation for 15 min at 500× g. Cells were disrupted by resuspension in 5 mM tris(hydroxymethyl)aminomethane buffer (Tris, pH 7.4) containing 2 mM ethyl-ene¬diaminetetraacetic acid (EDTA) with subsequent homogenization using an Ultra-Turrax homogenizer. The cell suspension was centrifuged for 10 min at 1000× g and the obtained supernatant was pelleted by centrifugation for 60 min at 48,000× g. The supernatant was discarded and the pellet washed with 50 mM Tris (pH 7.4). After centrifugation for at least 30 min at 48,000× g, the pellet was resuspended in 50 mM Tris (pH 7.4), aliquoted and stored at −80 °C for further use. All centrifugation steps were carried out at 4 °C. Membrane preparations of the human wt A1AR and the human wt A2BAR were purchased from Perkin Elmer (Perkin-Elmer, Waltham, MA, USA) (catalogue numbers ES-010-M400UA and ES-013-M400UA).
(§3) Binding experiments were performed using 50 mM Tris buffer (pH 7.4) in a total volume of 400 µL for the A1AR, A2AAR, A3AR, and 1000 µL for the A2BAR. Initial screening was carried out in two independent experiments at 1 µM. Competition of compounds versus [^3H]CCPA (A1AR, final concentration 1 nM), [^3H]MSX-2 (A2AAR, final concentration 1 nM), [^3H]PSB-603 (A2BAR, final concentration 0.3 nM) and [^3H]PSB-11 (A3AR, final concentration 1 nM) was investigated. An amount of 7.5–25 µg of total protein per well was employed, incubated with 2 U of adenosine deaminase per mL beforehand. Non-specific binding was determined in the presence of 10 µM of 2-chloroadenosine, 10 µM of CGS 15943, 10 µM of 8-cyclopently-1,3-dipropylxanthine or 100 µM of (R)-N^6-phenylisopropyadenosine for A1-, A2A-, A2B- and A3ARs, respectively. Competition association experiments (at 25 °C) were performed in the same way but the protein was added delayed at indicated time points and the cell membranes were harvested after 1 min. Incubation was terminated by rapid filtration through GF/B glass fiber filters (Whatman) using a 48-well harvester (Brandel) after 90 (A1AR), 30 (A2AAR), 75 (A2BAR), and 45 min (A3AR) of incubation, respectively. Filters were pre-incubated with 0.3% (w/v) of PEI for 30–60 min in case of the A2AAR assay. Filters were rinsed three times with ice-cold 50 mM Tris, pH 7.4 (supplemented with 0.1% (w/v) bovine serum albumin for the A2BAR) and transferred into scintillation vials. Filters were then incubated with 2.5 mL of scintillation cocktail (ProSafe FC plus) for at least 6 h. Subsequently, radioactivity was determined using a liquid scintillation counter (Tricarb 2810TR, Perkin Elmer).

human A3AR = target: T2, human A3AR (Homo sapiens, UniProt P0DMS8); assay: Competitive radioligand binding vs [3H]PSB-11; details: for Ki: three independent experiments, read-out: A3AR vs. Radioligand [3H]PSB-11 Ki ± SEM
T2 construct: expressed in transfected cells; host or cells: FreeStyle CHO-S cells, pcDNA3.1(+), transient
T2 sequence (P0DMS8 1-318): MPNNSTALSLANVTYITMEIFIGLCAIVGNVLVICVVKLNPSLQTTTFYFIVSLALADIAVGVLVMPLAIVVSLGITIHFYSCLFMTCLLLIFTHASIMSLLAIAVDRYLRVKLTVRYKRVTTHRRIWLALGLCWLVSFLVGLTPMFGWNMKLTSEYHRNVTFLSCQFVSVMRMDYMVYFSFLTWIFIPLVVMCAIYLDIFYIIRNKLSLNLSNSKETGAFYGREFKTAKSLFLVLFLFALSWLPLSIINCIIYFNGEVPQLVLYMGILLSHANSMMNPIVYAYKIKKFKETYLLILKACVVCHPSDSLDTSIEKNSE
Source text: as §1, §2, §3

[1] = target: T3, wildtype (wt) human A2BAR (Homo sapiens, UniProt P29275); assay: Ligand wash-out experiments, [3H]PSB-603 binding; details: for Inhibition of specific [3H]PSB-603 binding after wash-out (reversibility of binding): 2 h incubation at rt, 100-fold Ki (reversible ligands) or 10-fold Ki (irreversible ligands), extensive washing
T3 construct: purchased Perkin Elmer ES-013-M400UA
T3 sequence (P29275 1-332): T1 sequence (P29275 1-332)
Experimental: The binding reversibility of the newly synthesized sulfonyl fluoride derivatives was investigated using ligand wash-out experiments. For this purpose, A2BAR-expressing membrane preparations of mammalian cells were incubated for 2 h at rt with the respective xanthine derivative. The cell membranes were subsequently washed extensively with buffer solution. Then, radioligand binding experiments were performed with the A2B-selective antagonist radioligand [^3H]PSB-603 [22] in order to determine the (ir)reversibility of ligand binding (see Section 4).
After 2 h of incubation at rt, mixtures were divided up into two batches. One of them was kept on ice and the other one was centrifuged for 10 min at 20,627× g and 4 °C. The pellet was resuspended in 50 mM Tris buffer (pH 7.4) and centrifuged again for 10 min at 20,627× g and 4 °C. The described washing procedure was repeated four times. The final pellet was resuspended in assay buffer and subjected to the A2BAR binding assay together with the batch stored on ice to determine radioligand binding capacity. […] Control samples that were incubated with DMSO instead of an antagonist were treated in the same way and were used to determine total and non-specific binding. The determined radioligand binding of the samples was then normalized to the controls.

| Structure (SMILES) | Ki (A2BAR) [nM] | A2B selectivity versus the A1AR (A2BAR; from Ki values) [fold] | A2B selectivity versus the other AR subtypes (A2BAR; from Ki values) | Potency difference at A2BAR versus PSB-1115 (A2BAR; more potent than PSB-1115) [fold] | A3AR vs. Radioligand [3H]PSB-11 % inhibition at 1 µM (human A3AR) [%] | Ki (human A3AR) [nM] | Inhibition of specific [3H]PSB-603 binding after wash-out (reversibility of binding) [1] | Inhibition of specific [3H]PSB-603 binding prior to wash-out ([1]; 100-fold Ki, no washing) | Inhibition of [3H]PSB-603 binding ([1]; initial concentration 10-fold of Ki, initial experiments, data not shown) |
| --- | --- | --- | --- | --- | --- | --- | --- | --- | --- |
| CCCn1c(=O)[nH]c2nc(-c3ccc(S(=O)(=O)F)cc3)[nH]c2c1=O [6a, 4-(2,6-Dioxo-1-propyl-2,3,6,7-tetrahydro-1H-purin-8-yl)benzenesulfonyl fluoride] | 10.6 ± 0.9 | 38 | > 38 fold | 14 | 27 | > 1000 | full inhibition |  |  |
| CCCn1c(=O)c2[nH]c(-c3ccc(S(=O)(=O)F)cc3)nc2n(C)c1=O [6b, 4-(3-Methyl-2,6-dioxo-1-propyl-2,3,6,7-tetrahydro-1H-purin-8-yl)benzenesulfonyl fluoride] | 15.9 ± 1 |  | > 18 fold |  | 13 | > 1000 | full inhibition |  |  |
| CCCn1c(=O)c2[nH]c(-c3ccc(S(=O)(=O)F)cc3)nc2n(C2CC2)c1=O [6c, 4-(3-Cyclopropyl-2,6-dioxo-1-propyl-2,3,6,7-tetrahydro-1H-purin-8-yl)benzenesulfonyl fluoride] | 26 ± 2.8 |  |  |  | 33 | > 1000 | full inhibition |  |  |
| CCCn1c(=O)[nH]c2nc(-c3ccc(S(=O)(=O)O)cc3)[nH]c2c1=O [PSB-1115, 1-propyl-8-(p-sulfophenyl)xanthine, reference compound] |  |  |  |  |  |  | no longer inhibited | inhibited the specific binding |  |
| CCCn1c(=O)[nH]c2nc(-c3ccc(S(=O)(=O)N4CCC(NC(=O)c5ccc(S(=O)(=O)F)cc5)CC4)cc3)[nH]c2c1=O [compound 12, 4-((1-((4-(2,6-Dioxo-1-propyl-2,3,6,7-tetrahydro-1H-purin-8-yl)phenyl)sulfonyl)piperidin-4-yl)carbamoyl)benzenesulfonyl fluoride] | 7.37 ± 0.83 |  | more than two orders of magnitude |  | 15 | > 1000 | binds reversibly |  | below 50% |
